Experimental data: publication doi:10.1101/2023.03.27.534333v1 (biorxiv, 2023)

Legend:
[1] = biological target: T1, METTL16 MTD (residues 1-291) (Homo sapiens, UniProt Q86W50); test: microscale thermophoresis, His-tag RED-tris-NTA labelled protein; assay type: binding
T1 sequence (Q86W50 1-291): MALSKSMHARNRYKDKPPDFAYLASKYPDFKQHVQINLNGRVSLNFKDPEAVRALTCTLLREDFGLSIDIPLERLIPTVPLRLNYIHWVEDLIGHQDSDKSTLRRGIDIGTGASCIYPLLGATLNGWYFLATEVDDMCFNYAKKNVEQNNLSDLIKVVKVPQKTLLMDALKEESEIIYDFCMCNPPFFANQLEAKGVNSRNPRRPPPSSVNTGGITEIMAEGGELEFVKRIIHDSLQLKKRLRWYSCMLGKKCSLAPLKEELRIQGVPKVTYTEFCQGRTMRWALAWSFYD

[2] = biological target: T2, full-length METTL16 (Homo sapiens, UniProt Q86W50); test: m6A antibody-based ELISA; assay type: biochemical
T2 sequence (Q86W50 1-562): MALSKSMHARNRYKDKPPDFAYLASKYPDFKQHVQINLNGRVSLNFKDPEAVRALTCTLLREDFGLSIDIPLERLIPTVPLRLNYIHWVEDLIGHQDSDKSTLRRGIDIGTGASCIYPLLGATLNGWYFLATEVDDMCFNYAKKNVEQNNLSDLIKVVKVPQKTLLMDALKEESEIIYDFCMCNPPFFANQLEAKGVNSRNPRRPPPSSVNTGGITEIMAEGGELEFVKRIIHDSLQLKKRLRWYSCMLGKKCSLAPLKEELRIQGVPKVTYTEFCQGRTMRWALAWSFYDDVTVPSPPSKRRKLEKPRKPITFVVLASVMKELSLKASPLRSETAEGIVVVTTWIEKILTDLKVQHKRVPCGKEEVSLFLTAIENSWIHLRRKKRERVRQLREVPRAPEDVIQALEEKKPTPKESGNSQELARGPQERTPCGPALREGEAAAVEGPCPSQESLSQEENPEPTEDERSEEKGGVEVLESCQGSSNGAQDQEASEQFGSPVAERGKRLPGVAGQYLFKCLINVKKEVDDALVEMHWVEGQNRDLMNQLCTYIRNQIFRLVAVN

IC50 [2] [nM]	Compound	Kd [1] [nM]
25.8 ± 17.2	C/C(=N\N=C(/N)S)c1ccccc1 [compound 1, [(E)-(1-phenylethylidene)amino]thiourea]	3310 ± 610
60.9 ± 2.75	C/C(=N\NC(N)=S)c1ccc(F)cc1 [compound 2, [(E)-[1-(4-fluorophenyl)ethylidene]amino]thiourea]	2840 ± 940
